Results as given in article PMC3948622, “Docking, Synthesis and Antiproliferative Activity of N-Acylhydrazone Derivatives Designed as Combretastatin A4 Analogues” (PLoS ONE, 2014).
pIC50: −log10 of the molar value. Values after ≈ are worked out from the molar mass of the structure shown.

Columns and labels:
[1] = test system: NCI-H358M (pulmonary bronchio-alveolar carcinoma); test: In vitro antiproliferative MTT assay, NCI-H358M; format: cell-based; conditions: for SI Lymphocyte/ NCI-H358M: IC50 for human lymphocytes/IC50 for cancer cell line; for pIC50: NCI-H358M, Table 2, MTT
[2] = Aqueous solubility assay by ultraviolet spectroscopy; format: physicochemical; conditions: water (saturated aqueous solution), thermodynamic from solid, 2 hours at 37°C, read-out: Aq. Solubility
Procedure: Ultraviolet spectroscopy was performed using Femto spectrophotometer. The wavelength used in solubility assay was determined by the -λ max characteristic of each compound. Spectra were analyzed in Femtoscan software. Mass spectrometry was obtained by positive ionization at Bruker AmaZon SL and data analyzed in Compass 1.3.SR2 software.
The solubility assay was performed considering the absorptivity of compounds in ultraviolet spectroscopy as described by Schneider and coworkers. The assay wavelength was determined by the λ max characteristic of each compound.
Saturated aqueous solutions were prepared (0.01 mg/mL) and were kept under stirring for 2 hours at 37°C. The supernatant was filtered in 0,45 µm filters and transferred to a quartz cuvette (10 mm) to spectra acquisition.
Solubility was determined by linear regression using as graph plots, solutions prepared by dilutions of the original solution in methanol. The data were obtained in triplicates and the mean values were used to the graph plots. The correlation coefficient (R^2) values were between 0.9972 and 0.9999.

MDA-MB435 (melanoma) [3] = test: In vitro antiproliferative MTT assay, MDA-MB435; format: cell-based; conditions: Homo sapiens, MDA-MB-435; Table 2; MTT
HL-60 (human leukemia) = test: In vitro antiproliferative MTT assay, HL-60; format: cell-based; conditions: for pIC50: Homo sapiens, HL-60, Table 2, MTT; for SI Lymphocyte/ HL-60: IC50 for human lymphocytes/IC50 for cancer cell line
Procedure: (§1) The antiproliferative activity of compounds 5a–r was determined based on an MTT assay and using CA-4 as standard against the tumor cell lines: HL-60 (human leukemia), SF-295 (human glioblastoma), MDA-MB435 (melanoma), PC3M (prostate cancer), OVCAR-8 (ovaries adenocarcinoma), NCI-H258M (pulmonary bronchio-alveolar carcinoma) and HCT-8 (adenocarcinoma ileocecal) (Table 2). To determine the selectivity index of compounds 5a–r, their antiproliferative profile was also evaluated toward human lymphocytes (Table 2).
(§2) Compounds (0.009–5 µg/mL) were tested for cytotoxic activity against selected cancer cell lines: SF-295 (glioblastoma), HCT-8 (colon), MDAMB-435 (melanoma), HL60 (leukemia), PC3M (prostate cancer), OVCAR-8 (ovaries adenocarcinoma) and NCI-H258M (pulmonary bronchio-alveolar carcinoma). All cell lines were kindly obtained from the National Cancer Institute (Bethesda, MD, USA).Tumor cell proliferation was quantified through the ability of living cells to reduce the yellow dye 3-(4,5-dimethyl-2-thiazolyl)-2,5-diphenyl-2H-tetrazolium bromide (MTT, Sigma Aldrich)) to a purple formazan product and absorbance was measured at 595 nm (DTX-880, Beckman Coulter).

PC3M (prostate cancer) = test: In vitro antiproliferative MTT assay, PC3M; format: cell-based; conditions: for pIC50: Homo sapiens, PC-3M, Table 2, MTT; for SI Lymphocyte/ PC3M: IC50 for human lymphocytes/IC50 for cancer cell line
Procedure: as §1, §2

[4] = test system: SF-295 (human glioblastoma); test: In vitro antiproliferative MTT assay, SF-295; format: cell-based; conditions: for pIC50: Homo sapiens, SF-295, Table 2, MTT, read-out: IC50 SF295; for SI Lymphocyte/ SF-295: IC50 for human lymphocytes/IC50 for cancer cell line
Procedure: as §1, §2

human lymphocytes = test: In vitro antiproliferative assay, human lymphocytes; format: cell-based; conditions: Lymphocyte, Table 2
Procedure: as §1
To investigate the selective cytotoxic activity of the N-acylhydrazones derivatives (5a–r), their antiproliferative potency was also assessed toward human lymphocytes and the results were compared to the data from CA-4 ([…]). The selectivity index (SI), which was the IC50 for human lymphocytes/IC50 for cancer cell lines after treatment with CA-4 and N-acylhydrazones (5a–r), was calculated, as depicted in Table 3. […] The best comparative selectivity indices (CA-4 vs 5b) were obtained from the SF-295 (SI = 13), MDA-MB435 (SI = 42) and NCI-H258M (SI = 9.5) tumor cell lines, and the worst results were found for OVCAR-8 (SI = 0.5).

MDA-MB435 (melanoma) [5] = test: In vitro antiproliferative MTT assay, MDA-MB435; format: cell-based; conditions: IC50 for human lymphocytes/IC50 for cancer cell line
Procedure: as §1, §2

[6] = test system: OVCAR-8 (ovaries adenocarcinoma); test: In vitro antiproliferative MTT assay, OVCAR-8; format: cell-based; conditions: for pIC50: Homo sapiens, OVCAR-8, Table 2, MTT; for SI Lymphocyte/ OVCAR-8: IC50 for human lymphocytes/IC50 for cancer cell line
Procedure: as §1, §2

[7] = test system: HCT-8 (adenocarcinoma ileocecal); test: In vitro antiproliferative MTT assay, HCT-8; format: cell-based; conditions: for pIC50: Homo sapiens, HCT-8, Table 2, MTT; for SI Lymphocyte/ HCT-8: IC50 for human lymphocytes/IC50 for cancer cell line
Procedure: as §1, §2

tumor cell lines = test: In vitro antiproliferative MTT assay, tumor cell lines (summary over the panel); format: cell-based; conditions: summary in text over the cell lines of Table 2; read-out: IC50 (antiproliferative potency over the tumor cell lines)
Procedure: as §1, §2

pIC50 (tumor cell lines)	SMILES	SI Lymphocyte/ NCI-H358M [1]	pIC50 [1]	solubility at 2 h [2]	pIC50 (MDA-MB435 (melanoma) [3])	pIC50 (HL-60 (human leukemia))	SI Lymphocyte/ HL-60 (HL-60 (human leukemia))	pIC50 (PC3M (prostate cancer))	SI Lymphocyte/ PC3M (PC3M (prostate cancer))	pIC50 [4]	SI Lymphocyte/ SF-295 [4]	pIC50 (human lymphocytes)	SI Lymphocyte/ MDA-MB345 (MDA-MB435 (melanoma) [5])	melting point	pIC50 [6]	SI Lymphocyte/ OVCAR-8 [6]	pIC50 [7]	SI Lymphocyte/ HCT-8 [7]
	COc1cc(C(=O)N/N=C/c2coc3ccccc3c2=O)cc(OC)c1OC [Compound 5j, (E)-3,4,5-trimethoxy-N′-((4-oxo-4H-chromen-3-yl)methylene)benzohydrazide]	1	< 4.60	0.783 µg/mL (≈ 2.05 µM)	< 4.60	< 4.60	1	< 4.60	1	< 4.60	1	< 4.18	1	205 to 206 °C	< 4.60	1	4.63	2.8
	COc1cc(C(=O)N/N=C/c2ccc(F)cc2)cc(OC)c1OC [Compound 5p, (E)-N′-(4-fluorobenzylidene) - 3,4,5-trimetoxybenzohyidrazide]	1.76±0.04	5.67	20.9 µg/mL (≈ 62.9 µM)	5.80	5.90	3.11±0.11	5.35	0.89±0.01	5.57	1.46±0.06	5.42	2.34±0.06	181 to 182 °C	6.02	4.38±0.38	5.69	1.85±0.04
< 4.60	COc1cc(C(=O)N/N=C/c2ccc(-c3ccccc3)cc2)cc(OC)c1OC [Compound 5n, (E)-N′-(biphenyl-4-ylmethylene)-3,4,5-trimethoxyibenzohydrazide]	1	< 4.60	0.0606 µg/mL (≈ 0.155 µM)	< 4.60	< 4.60	1.0	< 4.60	1	< 4.60	1.0	< 4.19	1.0	187 to 188 °C	< 4.60	1	< 4.60	1.0
	COc1cc(C(=O)N/N=C/c2ccc(O)cc2)cc(OC)c1OC [Compound 5d, (E)-N′-(4-hydroxybenzylidene)-3,4,5-trimetoxybenzohydrazide]	1.16±0.06	4.93	15 µg/mL (≈ 45.4 µM)	6.06	5.58	5.15±0.05	5.34	2.96±0.86	4.80	0.82±0.02	4.87	16.06±0.86	189 °C	5.21	2.22±0.02	5.18	2.07±0.07
